# Measured values published in PMC7077990 (eLife, 2020).
# Experiments:
# [1] = biological target: T1, mitochondrial pyruvate carrier MPC (Mus musculus, UniProt P63030+Q9D023); test: mitochondrial pyruvate uptake in intact astrocytes, mito-PyronicSF fluorescence; assay type: cell-based; conditions: 3 mM extracellular pyruvate; KRH buffer pH 7.4; 22–25°C
# T1 construct: gene Mpc1; native carrier in intact cultured cortical astrocytes; read out as mitochondrial pyruvate uptake with mito-PyronicSF; subunit composition not determined
# T1 sequence (P63030 2-109): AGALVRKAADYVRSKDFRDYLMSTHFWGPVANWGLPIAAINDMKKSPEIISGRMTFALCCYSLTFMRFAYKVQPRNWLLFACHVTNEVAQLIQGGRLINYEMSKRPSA
# T1 sequence (Q9D023 1-127): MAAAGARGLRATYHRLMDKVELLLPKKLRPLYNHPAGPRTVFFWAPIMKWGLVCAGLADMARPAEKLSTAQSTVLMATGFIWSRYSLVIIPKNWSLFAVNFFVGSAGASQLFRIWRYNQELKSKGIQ
# [2] = biological target: T1, mitochondrial pyruvate carrier MPC; test: as above; assay type: cell-based; conditions: 3 mM extracellular pyruvate; KRH buffer pH 7.4; 22–25°C; remark: listed apart in the source
% uptake inhibition at 30 μM [1] [%],% uptake inhibition at 10 μM [2] [%],Structure (SMILES)
67,–,CN(CCOc1ccc(CC2SC(=O)NC2=O)cc1)c1ccccn1 (centres unmarked) [rosiglitazone]
–,69,N#C/C(=C\c1cn(-c2ccccc2)c2ccccc12)C(=O)O [UK-5099]
